Converted amounts (≈) assume the structure as drawn.
What was measured:
Type in all cases: cell-based
Aspergillus terreus AT49 [1] = test: MIC, RPMI medium; conditions: for MIC: Aspergillus terreus, AT49, MIC banded into grades, read-out: MIC grade, A. terreus 49
In short: (§1)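 RPMI (2% glucose, 0.135 M MOPS, pH 7.0) microdilution; drug 50-0.05 mg/L doubling series; inoculum 1−2×10^4 cfu/mL; 24-48 h, 35° C; OD485; MIC = lowest conc. with >80% inhibition vs drug-free control.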

Aspergillus flavus [2] = test: MIC, RPMI medium; conditions: MIC banded into grades; for MIC: Aspergillus flavus, read-out: MIC grade, A. flavus
In short: as §1

[3] = system: Aspergillus fumigatus AF210; test: MIC, RPMI medium; conditions: for MIC: Aspergillus fumigatus, AF210, MIC banded into grades, read-out: MIC grade, A. fumigatus 210
In short: as §1

Aspergillus niger [4] = test: MIC, RPMI medium; conditions: MIC banded into grades; for MIC: Aspergillus niger, read-out: MIC grade, A. niger
In short: as §1

[5] = system: Aspergillus fumigatus AF293; test: MIC, RPMI medium; conditions: for MIC: Aspergillus fumigatus, AF293, MIC banded into grades, read-out: MIC grade, A. fumigatus
In short: as §1

Aspergillus terreus AT4 [6] = test: MIC, RPMI medium; conditions: for MIC: Aspergillus terreus, AT4, MIC banded into grades, read-out: MIC grade, A. terreus
In short: as §1

Aspergillus terreus AT49 [7] = test: MIC, YAG medium; conditions: 24 h at 35° C, MIC banded into grades; for MIC: Aspergillus terreus, read-out: MIC grade, A. terreus 49
In short: (§2)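 Endpoint is growth at OD 485 nm after 24 h at 35° C, with MIC defined as the lowest drug level giving >70% inhibition relative to untreated wells and recorded in mg/L. Tests ran in YAG broth with 1−2×10^4 cfu/mL spore inocula from Sabouraud-grown cultures. Drug ranges were 50-0.05 mg/L, repeated at 0.5-0.0005 mg/L when needed.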

Aspergillus flavus [8] = test: MIC, YAG medium; conditions: 24 h at 35° C, MIC banded into grades; for MIC: Aspergillus flavus, 24 h, read-out: MIC grade, A. flavus
In short: as §2

[9] = system: Aspergillus fumigatus AF210; test: MIC, YAG medium; conditions: 24 h at 35° C, MIC banded into grades; for MIC: Aspergillus fumigatus, read-out: MIC grade, A. fumigatus 210
In short: as §2

Aspergillus niger [10] = test: MIC, YAG medium; conditions: 24 h at 35° C, MIC banded into grades; for MIC: Aspergillus niger, read-out: MIC grade, A. niger
In short: as §2

[11] = system: Aspergillus fumigatus AF293; test: MIC, YAG medium; conditions: 24 h at 35° C, MIC banded into grades; for MIC: Aspergillus fumigatus, read-out: MIC grade, A. fumigatus
In short: as §2

Aspergillus terreus AT4 [12] = test: MIC, YAG medium; conditions: 24 h at 35° C, MIC banded into grades; for MIC: Aspergillus terreus, read-out: MIC grade, A. terreus
In short: as §2

MIC (Aspergillus terreus AT49 [1])	MIC (Aspergillus flavus [2])	MIC [3]	MIC (Aspergillus niger [4])	MIC [5]	MIC (Aspergillus terreus AT4 [6])	MIC (Aspergillus terreus AT49 [7])	MIC (Aspergillus flavus [8])	MIC [9]	MIC (Aspergillus niger [10])	MIC [11]	MIC (Aspergillus terreus AT4 [12])	Structure (SMILES)	further results
1 to 10 µg/mL (≈ 1.85 to 18.5 µM)	1 to 10 µg/mL (≈ 1.85 to 18.5 µM)	< 1 µg/mL	< 1 µg/mL	< 1 µg/mL	< 1 µg/mL	< 1 µg/mL	< 1 µg/mL	< 1 µg/mL	< 1 µg/mL	< 1 µg/mL	< 1 µg/mL	COCCn1c(C)cc(-c2ccccc2)c1C(=O)C(=O)Nc1ccc(N2CCN(c3ccccn3)CC2)cc1F [Example 96, N-[2-Fluoro-4-(4-pyridin-2-yl-piperazin-1-yl)-phenyl]-2-[1-(2-methoxy-ethyl)-5-methyl-3-phenyl-1H-pyrrol-2-yl]-2-oxo-acetamide]	
1 to 10 µg/mL (≈ 1.91 to 19.1 µM)	> 10 µg/mL	1 to 10 µg/mL (≈ 1.91 to 19.1 µM)	> 10 µg/mL	1 to 10 µg/mL (≈ 1.91 to 19.1 µM)	1 to 10 µg/mL (≈ 1.91 to 19.1 µM)	< 1 µg/mL	1 to 10 µg/mL (≈ 1.91 to 19.1 µM)	1 to 10 µg/mL (≈ 1.91 to 19.1 µM)	> 10 µg/mL	< 1 µg/mL	1 to 10 µg/mL (≈ 1.91 to 19.1 µM)	Cc1cc(C)nc(N2CCN(c3ccc(NC(=O)C(=O)c4c(-c5ccccc5)ccn4CCO)cc3)CC2)c1 [Example 66, N-{4-[4-(4,6-Dimethyl-pyridin-2-yl)-piperazin-1-yl]-phenyl}-2-[1-(2-hydroxy-ethyl)-3-phenyl-1H-pyrrol-2-yl]-2-oxo-acetamide]	
< 1 µg/mL	< 1 µg/mL	< 1 µg/mL	< 1 µg/mL	< 1 µg/mL	< 1 µg/mL	< 1 µg/mL	< 1 µg/mL	< 1 µg/mL	< 1 µg/mL	< 1 µg/mL	< 1 µg/mL	COCn1c(C)cc(-c2ccccc2)c1C(=O)C(=O)Nc1ccc(N2CCN(c3cc(C)cc(C)n3)CC2)cc1 [Example 62, N-{4-[4-(4,6-Dimethyl-pyridin-2-yl)-piperazin-1-yl]-phenyl}-2-(1-methoxymethyl-5-methyl-3-phenyl-1H-pyrrol-2-yl)-2-oxo-acetamide]	
												COC(=O)Cn1c(C)cc(-c2ccccc2)c1C(=O)C(=O)Nc1ccc(N2CCN(c3cc(C)cc(C)n3)CC2)cc1F [Example 111, (2-{4-[4-(4,6-Dimethyl-pyridin-2-yl)-piperazin-1-yl]-2-fluoro-phenylaminooxalyl}-5-methyl-3-phenyl-pyrrol-1-yl)-acetic acid methyl ester]	MIC grade, A. terreus 49 (Aspergillus terreus AT49 [1]; MIC banded into grades): 2 (A grade of 2 represents an MIC of from 1 to 10 mg/L); MIC grade, A. flavus (Aspergillus flavus [2]): 2 (A grade of 2 represents an MIC of from 1 to 10 mg/L); MIC grade, A. fumigatus 210 ([3]; MIC banded into grades): 3 (A grade of 3 represents an MIC of less than 1 mg/L); MIC grade, A. niger (Aspergillus niger [4]): 3 (A grade of 3 represents an MIC of less than 1 mg/L); MIC grade, A. fumigatus ([5]; MIC banded into grades): 3 (A grade of 3 represents an MIC of less than 1 mg/L); MIC grade, A. terreus (Aspergillus terreus AT4 [6]; MIC banded into grades): 3 (A grade of 3 represents an MIC of less than 1 mg/L); MIC grade, A. terreus 49 (Aspergillus terreus AT49 [7]): 3 (A grade of 3 represents an MIC of less than 1 mg/L); MIC grade, A. flavus (Aspergillus flavus [8]): 2 (A grade of 2 represents an MIC of from 1 to 10 mg/L); MIC grade, A. fumigatus 210 [9]: 3 (A grade of 3 represents an MIC of less than 1 mg/L); MIC grade, A. niger (Aspergillus niger [10]): 3 (A grade of 3 represents an MIC of less than 1 mg/L); MIC grade, A. fumigatus [11]: 3 (A grade of 3 represents an MIC of less than 1 mg/L); MIC grade, A. terreus (Aspergillus terreus AT4 [12]): 3 (A grade of 3 represents an MIC of less than 1 mg/L)

— US8993574B2, “Pyrrole antifungal agents” (F2G Ltd, priority 2008, dated 2015)
